Tests used:
[1] = molecular target: T1, CB1 receptor (Mus musculus, UniProt P47746); assay: THC-induced cannabinoid tetrad (body temperature, locomotor activity, catalepsy, analgesia); format: in vivo, mice; parameters: tissue Charles River Laboratories (France) (animals); host or cells: living mice, whole animal
[2] = Elevated plus maze, anxiety-like behaviors; format: in vivo, mice; settings: sc, 30 min before test; pregnenolone 1, 6, 10 mg/kg; rimonabant 10 mg/kg
Description: The elevated plus maze was made by a central platform (10×10 cm) from which departed 4 arms (45×10 cm) at a 90° angle from each other. Two opposite arms, named closed arms had peripheral wall 50 cm high. The two other arms, named open arms had no walls. The maze was suspended at 66 cm from the floor of the room and was brightly lighted (120 lux). The testing consisted in placing the animal in the central platform and the number of entry and the time spent in each compartment of the maze recorded for 5 min. The number of entry and time spent in the open arms are considered and index of anxiety-like behaviors, whilst the total number of entry are and index of locomotor activity.
One of the major side effects of orthosteric antagonists of the CB1 is the induction of behavioral side effect and in particular an axiodepressive state. […] This test has been chosen because an increase in anxiety was the principal undesirable side effect of this compound in humans.

[3] = molecular target: T1, CB1 receptor; assay: Food intake in 24 h-food deprived mice (fasting/refeeding); format: in vivo, C57B1/6 mice; parameters: tissue Charles River Laboratories (France) (animals); host or cells: living mice, whole animal; settings: for effect on food intake in 24 h-food deprived mice: food intake over 1 h
[4] = tested on: NMDA receptors; assay: Whole cell currents induced by NMDA in nucleus accumbens principal neurons; format: cell-based, mouse; settings: −30 mV
Description: NMDAR-mediated currents: Changes in holding currents induced by NMDA were measured in cells voltage clamped at −30 mV, to relieve NMDAR from the voltage-dependent magnesium block. AMPAR and GABA-A receptors were blocked with DNQX 20 μM and picrotoxine 50 μM, respectably.
To quantify NMDA receptors-mediated currents we used a different strategy. Because of its slow kinetics and voltage dependence, the isolation of NMDAR-mediated mEPSC is not as reliable as for AMPAR-mediated currents. Thus, we decided to record whole cell currents in response exogenously applied NMDA. In NAc PN voltage-clamped at −30 mV, bath perfusion of NMDA 25 μM for 1 minute induced an inward current of similar magnitude in control slices (115±15.5 pA) and in slices pre-treated with pregnenolone (100 nM: 107±9.6 pA; 1 μM: 108.9±12.5 pA; p=0.91) (FIG. 17 B).

[5] = molecular target: T1, CB1 receptor; assay: THC inhibition of fEPSP in nucleus accumbens slices; format: cell-based, mice; parameters: from tissue; host or cells: acute brain slices, nucleus accumbens; settings: slices pre-incubated with pregnenolone 100 nM
Description: Animals were deeply anesthetized with Isoflourane and transcardially perfused with a sucrose-based physiological solution at 4° C. (in mM: 23 NaHCO3, 70 Choline Cl, 75 Sucrose, 25 Glucose, 2.5 KCl, 1.25 NaH2PO4, 7 MgCl2 and 0.5 CaCl2). The brain was removed and sliced (250-300 μm) in the coronal plane using a vibratome (Campden Instruments, Loughborough, UK). During the slicing process, the brain was maintained in the sucrose-based solution. Immediately after cutting, slices were stored at 32° C. for 40 minutes in a low-calcium artificial cerebrospinal fluid (low-Ca^2+ ACSF) that contained (in mM): 23 NaHCO3, 120 NaCl, 11 Glucose, 2.5 KCl, 1.2 NaH2PO4, 2.4 MgCl2, 1.2 CaCl2. Slices were then stored in low-Ca^2+ ACSF at room temperature until recording.
For fEPSPs, extracellular glass recording and stimulating electrodes were filled with ACSF. Synaptic potentials were evoked by means of two electric stimuli (0.1-0.25 mA, 200 μsec duration) delivered at 20 Hz every 10 seconds. Stimulating electrode was placed at a distance>150 μm in the dorsomedial direction from the recoding electrode.
In order to test the effect of pregnenolone on a wider range of THC concentrations, we recorded fEPSP in NAc slices. Due to the possibility to achieved stable fEPSP measurements for several hours, this technique is ideally suited to perform dose-response curves and has previously been used to address CB1 receptor function (Robbe et al., 2001; Mato et al., 2004). Thus, AMPAR-mediated evoked fEPSP were recorded by electrically stimulating local axons.

[6] = molecular target: T1, CB1 receptor; assay: Object recognition task, THC-induced amnesia; format: in vivo, mice; parameters: tissue Charles River Laboratories (France) (animals); host or cells: living mice, whole animal
Description: Object recognition was measured in a two arms L-maze (size of each arm 30 cm length×4.5 cm width) in dim light condition (50-60 lux). Animals were individually tested for three consecutive days for 9 min-session each day, corresponding to habituation, training and test sessions. On day 1 (habituation session), mice were let explore the L maze with no object. On the second day (training session), two identical objects were presented at the end of the each arm of the maze. Although no preferences for arm of object appeared (data not shown) object and arms were randomized for each mouse/condition. On the 3rd day (test session), one of the familiar objects was replaced with a novel object and the total time spent exploring each of the two objects (novel and familiar) was computed. The time spent in each arm and the time spent exploring an object (familiar or novel) were recorded. Object exploration was defined as the orientation of the nose to the object at a distance of less than 2 cm. During the test session, a discrimination index was calculated as the difference between the times spent exploring either the novel or familiar object divided by the total time exploring the two objects. […]
In this example the inventors further analyzed the ability of pregnenolone to inhibit the effects of CB1 activation. […]

T1 sequence (P47746 whole entry): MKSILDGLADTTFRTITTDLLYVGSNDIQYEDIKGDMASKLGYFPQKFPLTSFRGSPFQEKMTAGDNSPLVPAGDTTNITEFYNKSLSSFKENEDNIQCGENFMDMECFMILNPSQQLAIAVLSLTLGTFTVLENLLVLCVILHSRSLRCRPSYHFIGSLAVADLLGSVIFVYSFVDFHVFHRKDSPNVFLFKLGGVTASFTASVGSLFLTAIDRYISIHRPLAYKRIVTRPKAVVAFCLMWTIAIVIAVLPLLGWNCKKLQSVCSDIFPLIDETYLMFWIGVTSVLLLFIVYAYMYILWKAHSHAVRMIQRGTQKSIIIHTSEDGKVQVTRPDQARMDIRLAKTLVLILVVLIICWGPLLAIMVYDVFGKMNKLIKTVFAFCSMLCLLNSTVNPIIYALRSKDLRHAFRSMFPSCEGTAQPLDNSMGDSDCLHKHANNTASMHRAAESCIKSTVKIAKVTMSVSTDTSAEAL

SMILES: CC(=O)[C@H]1CC[C@H]2[C@@H]3CC=C4C[C@@H](O)CC[C@]4(C)[C@H]3CC[C@]12C [Pregnenolone, 5-Pregnen-3β-ol-20-one]
- effect on THC-induced cannabinoid tetrad ([1]; pregnenolone 6 mg/kg before THC, absence of AMG): decreased all the behaviours of the THC-induced cannabinoid tetrad
- effect on the AMG enhancement of THC behavioural effects ([1]; pregnenolone 6 mg/kg, AMG 50 mg/kg, THC 10 mg/kg): completely reversed
- effect on locomotor activity, body temperature, catalepsy and pain threshold in the absence of THC ([1]; pregnenolone per se): had no effect
- anxiety-like behavior (entries and time spent in open arms) [2]: induced no increase in anxiety
- first statistically significant dose for decrease of food intake ([3]; food-deprived (food-restricted) mice, no THC): 6 mg/kg
- effect on food intake in 24 h-food deprived mice ([3]; no THC): dose-dependently decreased food intake
- effect on food intake in 24 h-food deprived mice ([3]; no THC, listed as pregnenolone): dose dependently decreased food intake
- effect on food intake over 24 hours in fasting/refeeding model ([3]; pregnenolone): no significant effect was seen over 24 hours
- inward current induced by NMDA 25 μM ([4]; slices pre-treated with 100 nM): 107±9.6 pA
- inward current induced by NMDA 25 μM ([4]; slices pre-treated with 1 μM): 108.9±12.5 pA
- inhibition of fEPSP by THC ([5]; THC 10 μM): 11.1±3.2%
- inhibition of fEPSP by THC ([5]; THC 20 μM): 22.7±2.7%
- inhibition of fEPSP by THC ([5]; THC 40 μM): 34.6±3.1%
- effect on memory retention in the absence of THC ([6]; pregnenolone 6 mg/kg): did not induce any change in memory retention
- effect on amnesic effect of THC ([6]; pregnenolone 6 mg/kg immediately after training, THC 10 mg/kg): strongly blunted the amnesic effect

Source: patent US10150793B2, “Antagonists of CB1 receptor” (INSERM (Institut National de la Santé et de la Recherche …, priority 2011, dated 2018)
